Columns and labels:
hTLR7 = biological target: T1, hTLR7 (Homo sapiens, UniProt Q9NYK1); test: TLR7 reporter assay in HEK-Blue cells (SEAP, Quanti-Blue); assay type: cell-based; conditions: 24 hours incubation, SEAP absorbance at 620 nm
T1 construct: host or cells: HEK-Blue hTLR7 (HEK293-derived SEAP reporter cells)
T1 sequence (Q9NYK1 27-1049): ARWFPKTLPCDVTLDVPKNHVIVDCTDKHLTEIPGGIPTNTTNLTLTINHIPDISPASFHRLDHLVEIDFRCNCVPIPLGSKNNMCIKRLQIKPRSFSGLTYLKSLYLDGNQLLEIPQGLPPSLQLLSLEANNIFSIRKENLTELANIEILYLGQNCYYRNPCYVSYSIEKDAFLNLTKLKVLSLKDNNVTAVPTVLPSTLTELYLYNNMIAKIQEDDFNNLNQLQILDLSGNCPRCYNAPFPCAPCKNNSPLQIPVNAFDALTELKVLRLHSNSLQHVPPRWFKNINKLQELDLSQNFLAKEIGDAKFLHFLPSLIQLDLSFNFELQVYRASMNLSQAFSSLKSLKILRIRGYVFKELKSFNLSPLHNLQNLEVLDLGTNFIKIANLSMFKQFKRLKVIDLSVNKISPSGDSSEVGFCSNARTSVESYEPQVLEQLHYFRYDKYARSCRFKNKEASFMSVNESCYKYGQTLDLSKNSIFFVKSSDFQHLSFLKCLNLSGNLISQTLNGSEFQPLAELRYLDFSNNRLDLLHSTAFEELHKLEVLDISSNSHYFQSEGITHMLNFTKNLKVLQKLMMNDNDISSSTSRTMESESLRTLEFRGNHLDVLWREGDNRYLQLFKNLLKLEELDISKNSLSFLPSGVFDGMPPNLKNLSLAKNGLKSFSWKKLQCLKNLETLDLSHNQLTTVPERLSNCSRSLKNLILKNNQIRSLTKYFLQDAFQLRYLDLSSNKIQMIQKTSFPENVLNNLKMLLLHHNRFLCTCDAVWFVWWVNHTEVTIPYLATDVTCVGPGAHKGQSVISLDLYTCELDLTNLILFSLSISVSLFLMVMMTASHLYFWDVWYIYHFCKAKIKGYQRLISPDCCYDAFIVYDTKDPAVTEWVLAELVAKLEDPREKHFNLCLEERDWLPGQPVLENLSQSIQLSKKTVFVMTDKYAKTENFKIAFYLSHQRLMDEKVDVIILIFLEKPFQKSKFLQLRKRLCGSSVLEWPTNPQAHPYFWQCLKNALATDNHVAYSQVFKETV
Method: HEK-Blue™ TLR7 and TLR8 cell lines were obtained from InvivoGen (San Diego, CA, USA). HEK-Blue cells were cultured in DMEM medium hi glucose (Gibco-10569010) supplemented with 10% HI-FBS (Aus origin) (Gibco-10100-147), 1% penicillin/streptomycin (Gibco-15140-122-100 ml) as per manufacturer's recommendation. In addition, specific antibiotic mixtures were added to the culture. 100 μg/ml Zeocin (11006-33-0), 10 μg/ml Blasticidin (ant-bl-05), 50 μg/ml Normocin (ANT-NR-1-500 MG) for HEK-Blue™ hTLR7 and 100 μg/ml Zeocin, 30 μg/ml Blasticidin, 50 μg/ml Normocin for HEK-Blue™ hTLR8 cells (all from InvivoGen).
All the compounds were prepared in 100% DMSO (Sigma-D2650). The compounds were serially diluted in 100% DMSO (3 fold) up to 10 point dose response curve starting with 30 μM; final concentration of DMSO in the plate was 0.3%. Resiquimod and TL8-506 (InvivoGen-tlrl-t18506) were used as controls. 0.3% DMSO and 10 μM Resiquimod were used as min and max respectively, and % activation was calculated using following formula:
% Activation: {100−(max absorbance−absorbance)/(max absorbance−min absorbance)}×100.
For stimulation with TLR7/8 agonists, cells were resuspended in complete media and 40 μl of cell suspension (10,000 cells/well) was seeded on day 1 in 384 well assay plate (Thermo Scientific™ Nunc-164688) having pre-dispensed compounds with Echo Liquid handler. The plate was spun at 100 g for 1 min to settle down the cells and incubated at 37° C. with 5% CO2 for 24 hours. For measuring production of SEAP after 24 hrs of incubation, 10 μl of Quanti-Blue™ solution (InvivoGen rep-qbs2) prepared according to manufacturer's instructions was added in dark to the assay plate and incubated at 37° C. with 5% CO2 for 30 min. Post incubation, the absorbance was measured at 620 nm in Tecan spark (Spark control Magellan). EC50 were determined using Graph Pad Prism Statistical software (Version 7.05), with individual data points represent the absorbance values of duplicates.

[1] = test system: Peripheral blood mononuclear cells (PBMC); test: TNFα secretion from PBMCs; assay type: cell-based; conditions: human PBMCs, 18 hours incubation, MILLIPLEX bead panel
Method: Peripheral blood mononuclear cells (PBMC) were isolated from healthy human volunteers and banked in liquid nitrogen. Vial of frozen PBMC was thawed in 37° C. water bath for no more than 2 minutes. The contents of the tube were aseptically transferred to pre-warmed complete media containing RPMI basal media (Gibco-21875034) supplemented with 10% HI-FBS (Aus origin) (Gibco-10100-147) and 1% penicillin/streptomycin (Gibco-15140-122-100 ml) followed by centrifugation. Cells were resuspended in complete media (3 ml) and counted using haemocytometer.
All selected compounds (Five benchmark and 15 example molecules) were prepared in 100% DMSO (Sigma-D2650) (10 mM stock). The compounds were serially diluted in 100% DMSO (4 fold) up to 8 point DRC in U-bottom 96 well plate (Cellstar-650180). 3 μl of this serially diluted DRC was mixed with 97 μl of completed media (1:33.33) as intermediate dilution (300 μM) 3% DMSO. 11 μl of compounds from intermediate dilution was added to the PBMC plate (1:10) such that final concentration of DMSO in the culture plate is 0.3% and starting concentration of the compounds is 30 μM. Resiquimod (30 μM) and DMSO (0.3%) were used as positive and negative controls respectively.
The plate was incubated at 37° C. with 5% CO2 for 18 hours. Post incubation, the plate was spun at 2000 rpm for 5 min and supernatant was gently aspired and collected in protein low binding V-bottom 96 well plates (Thermo Fisher-249944). The supernatant plates were sealed, labelled appropriately and stored at −80° C. till cytokine analysis (<1 month).
MILLIPLEX MAP Human Cytokine/Chemokine Magnetic Bead Panel kit (HCYTOMAG-60K) was used for measuring TNF alpha as per the kit's recommendation.
EC50 were determined using Graph Pad Prism Statistical software (Version 7.05), with individual data points represent the absorbance values of duplicates.

Structure (SMILES)	EC50 (hTLR7) [nM]	EC50 [1] [nM]
CCOCc1nc2c(N)nc3ccccc3c2n1CC(C)(C)OCCCCN1CCNCC1 [Example 10]	10 to 100	100 to 1000
CCOCc1nc2c(N)nc3ccccc3c2n1CC(C)(C)OCCCCN1CCOCC1 [Example 7]	10 to 100	100 to 1000
CCOCc1nc2c(N)nc3ccccc3c2n1CC(C)(C)OCCCCn1cc(CO)nn1 [Example 13]	10 to 100	100 to 1000
CCOCc1nc2c(N)nc3ccccc3c2n1CC(C)(C)OCCCCN1CCCCC1 [Example 8]	10 to 100	1000 to 10000
CCOCc1nc2c(N)nc3ccccc3c2n1CC(C)(C)OCCCCCN1CCN(C)CC1 [Example 4]	< 10	< 100
CCOCc1nc2c(N)nc3ccccc3c2n1CC(C)(C)OC(=O)CN [Example 19]	100 to 1000	< 100
CCOCc1nc2c(N)nc3ccccc3c2n1CC(C)(C)OCCCN1CCN(C)CC1 [Example 2]	10 to 100	100 to 1000
CCOCc1nc2c(N)nc3ccccc3c2n1CC(C)(C)OCCCCN1CCN(CCN)CC1 [Example 11]	100 to 1000	1000 to 10000
CCOCc1nc2c(N)nc3ccccc3c2n1CC(C)(C)OCCCCN1CCCC1 [Example 9]	10 to 100	> 10000
CCOCc1nc2c(N)nc3ccccc3c2n1CC(C)(C)OCCCCN1CCN(CC(C)(C)SC)CC1 [Example 27]	10 to 100	1000 to 10000
CCOCc1nc2c(N)nc3ccccc3c2n1CC(C)(C)OCCCCN1CCN(C)CC1 [Example 3]	< 10	< 100
CCOCc1nc2c(N)nc3ccccc3c2n1CC(C)(C)OCCCCn1cc(CN)nn1 [Example 14]	10 to 100	100 to 1000
CCNCc1nc2c(N)nc3ccccc3c2n1CC(C)(C)OCCCCN1CCN(C)CC1 [Example 18]	1000 to 10000	1000 to 10000

Reference: patent US20260193250A1, “TOLL-LIKE RECEPTOR 7 AGONISTS AS IMMUNE-STIMULATORS TO ELICIT THE INNATE ANTITUMOR IMMUNITY” (Merck Patent GmbH, priority 2022, published 2026)
